Measured values as given in US9302999B2, “Substituted triazoles as herbicides” (E. I. DU PONT DE NEMOURS AND COMPANY, priority 2012, dated 2016).

Legend:
Type in all cases: in vivo
[1] = tested on: surinam grass (Brachiaria decumbens); experiment: Test F pre-/postemergence: surinam grass; conditions: Preemergence
From the text: (§1) Seeds of plant species selected from corn (Zea mays), soybean (Glycine max), velvetleaf (Abutilon theophrasti), lambsquarters (Chenopodium album), poinsettia, wild (wild poinsettia, Euphorbia heterophylla), pigweed, palmer (palmer pigweed, Amaranthus palmeri), waterhemp (common waterhemp, Amaranthus rudis), surinam grass (Brachiaria decumbens), crabgrass, Brazil (Brazilian crabgrass, Digitaria horizontalis), panicum, fall (fall panicum Panicum dichotomiflorum), crabgrass, large (large crabgrass, Digitaria sanguinalis), foxtail, giant (giant foxtail, Setaria faberii), foxtail, green (green foxtail Setaria viridis), goosegrass (Eleusine indica), ragweed (common ragweed, Ambrosia elatior), barnyardgrass (Echinochloa crus-galli), sandbur (southern sandbur, Cenchrus echinatus), arrowleaf sida (Sida rhombifolia), ryegrass, Italian (Italian ryegrass, Lolium multiflorum), dayflower, VA (Virginia (VA) dayflower, Commelina virginica), field bindweed (Convolvulus arvensis), cocklebur (common cocklebur, Xanthium strumarium), morningglory (Ipomoea coccinea), nightshade (eastern black nightshade, Solanum ptycanthum), kochia (Kochia scoparia), nutsedge, yellow (yellow nutsedge, Cyperus esculentus), johnsongrass (Sorghum halepense), smartweed (ladysthumb smartweed, Polygonum persicaria), and beggarticks (hairy beggarticks, Bidens pilosa), were planted into a silt loam soil and treated preemergence with test chemicals formulated in a non-phytotoxic solvent mixture which included a surfactant. At the same time, plants selected from these crop and weed species and also pigweed (Amaranthus retroflexus), waterhemp_RES1 (ALS/Triazine resistant common waterhemp, Amaranthus rudis) and waterhemp_RES2 (ALS/HPPD resistant common waterhemp, Amaranthus rudis) were planted in pots containing a planting medium comprising spaghnum peat moss, vermiculite, wetting agent and starter nutrients treated with postemergence applications of some of the test chemicals formulated in the same manner. Plants ranged in height from 2 to 18 cm for postemergence treatments (1- to 4-leaf stage).
(§2) Treated plants and controls were maintained in a greenhouse for 14 to 21 days, after which time all species were compared to controls and visually evaluated. Plant response ratings, summarized in Table E, are based on a scale of 0 to 100 where 0 is no effect and 100 is complete control. A dash (-) response means no test result.

[2] = tested on: morningglory (Ipomoea coccinea); experiment: Test F pre-/postemergence: morningglory; conditions: Preemergence
From the text: as §1, §2

kochia (Kochia scoparia) = experiment: Test F pre-/postemergence: kochia; conditions: Preemergence
From the text: as §1, §2

[3] = tested on: field poppy (Papaver rhoeas); experiment: Test D pre-/postemergence: field poppy
Procedure, shortened: (§3)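 We sprayed chemicals in a surfactant-containing solvent onto silt loam at planting (preemergence) and onto 1- to 4-leaf seedlings (postemergence). Fourteen to 21 days later, each species was rated visually from 0 to 100 relative to controls.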

[4] = tested on: lambsquarters (Chenopodium album); experiment: Test D pre-/postemergence: lambsquarters
Procedure, shortened: as §3

[5] = tested on: wheat, spring (spring wheat, Triticum aestivum); experiment: Test D pre-/postemergence: wheat, spring
Procedure, shortened: as §3

[6] = 16 g ai/ha, scale 0 to 100, 0 no effect, 100 complete control
[7] = 31 g ai/ha, scale 0 to 100, 0 no effect, 100 complete control
[8] = Postemergence, 31 g ai/ha, scale 0 to 100 (0 no effect, 100 complete control)
[9] = Postemergence, 62 g ai/ha, scale 0 to 100 (0 no effect, 100 complete control)
[10] = Postemergence, 125 g ai/ha, scale 0 to 100, 0 no effect, 100 complete control
[11] = Postemergence, 16 g ai/ha, scale 0 to 100
[12] = Preemergence, 16 g ai/ha, scale 0 to 100, 0 no effect, 100 complete control
[13] = Preemergence, 31 g ai/ha, scale 0 to 100, 0 no effect, 100 complete control
[14] = Preemergence, 62 g ai/ha, scale 0 to 100
[15] = Preemergence, 125 g ai/ha, scale 0 to 100
[16] = 8 g ai/ha, scale 0 to 100, 0 no effect, 100 complete control

| SMILES | Plant response rating, Surinam Grass [1, 6] | Plant response rating, Surinam Grass [1, 7] | Plant response rating, Surinam Grass ([1]; 125 g ai/ha, scale 0 to 100) | Plant response rating, Surinam Grass ([1]; 250 g ai/ha, scale 0 to 100) | Plant response rating, Morningglory [2, 6] | Plant response rating, Morningglory [2, 7] | Plant response rating, Morningglory ([2]; 125 g ai/ha, scale 0 to 100) | Plant response rating, Morningglory ([2]; 250 g ai/ha, scale 0 to 100) | Plant response rating, Kochia (kochia (Kochia scoparia); [6]) | Plant response rating, Kochia (kochia (Kochia scoparia); [7]) | Plant response rating, Kochia (kochia (Kochia scoparia); 62 g ai/ha, scale 0 to 100) | Plant response rating, Kochia (kochia (Kochia scoparia); 125 g ai/ha, scale 0 to 100) | Plant response rating, Kochia (kochia (Kochia scoparia); 250 g ai/ha, scale 0 to 100) | Plant response rating: Field Poppy [3, 8] | Plant response rating: Field Poppy [3, 9] | Plant response rating: Field Poppy [3, 10] | Plant response rating, Field Poppy [3, 11] | Plant response rating, Field Poppy [3, 12] | Plant response rating, Field Poppy [3, 13] | Plant response rating, Field Poppy [3, 14] | further results |
| --- | --- | --- | --- | --- | --- | --- | --- | --- | --- | --- | --- | --- | --- | --- | --- | --- | --- | --- | --- | --- | --- |
| COc1nn(-c2cccc(F)c2)nc1Cc1ccnc(C(F)(F)F)c1 [Compound 139] | 0 | 0 | 75 | 75 | 0 | 0 | 5 | 20 | 0 | 0 | 35 | 90 | 98 |  |  |  |  |  |  |  |  |
| Cc1nn(-c2ccc(F)cc2F)nc1Oc1ccnc(C(F)(F)F)c1 [Compound 146] | 0 | 0 | 20 | 35 | 0 | 0 | 0 | 25 | 0 | 5 | 30 | 50 | 98 |  |  |  |  |  |  |  |  |
| Cc1nn(-c2ccc(C(F)(F)F)c(F)c2)nc1Oc1ccnc(C(F)(F)F)c1 [Compound 148] | 25 | 40 | 98 | 98 | 0 | 30 | 50 | 70 | 0 | 90 | 90 | 95 | 98 | 100 | 95 | 100 | 90 | 10 | 70 | 100 | Plant response rating, Field Poppy [3, 15]: 95; Plant response rating: Lambsquarters [4, 8]: 85; Plant response rating: Lambsquarters [4, 9]: 95; Plant response rating: Lambsquarters [4, 10]: 95; Plant response rating, Lambsquarters [4, 11]: 85; Plant response rating, Lambsquarters [4, 12]: 35; Plant response rating, Lambsquarters [4, 13]: 40; Plant response rating, Lambsquarters [4, 14]: 80; Plant response rating, Lambsquarters [4, 15]: 90; Plant response rating: Wheat, Spring [5, 8]: 10; Plant response rating: Wheat, Spring [5, 9]: 20; Plant response rating: Wheat, Spring [5, 10]: 25; Plant response rating, Wheat, Spring [5, 11]: 10; Plant response rating, Wheat, Spring [5, 12]: 0; Plant response rating, Wheat, Spring [5, 13]: 0; Plant response rating, Wheat, Spring [5, 14]: 0; Plant response rating, Wheat, Spring [5, 15]: 5 |
| CCc1nn(-c2ccc(F)cc2)nc1Cc1ccnc(C(F)(F)F)c1 [Compound 154] | 0 | 10 | 70 | 90 |  |  |  |  | 5 | 25 | 85 | 95 | 98 |  |  |  |  |  |  |  |  |
| CCc1nn(-c2ccc(C(F)(F)F)cc2)nc1Cc1ccnc(C(F)(F)F)c1 [Compound 155] |  |  | 90 | 90 |  |  |  |  |  |  | 70 | 98 | 100 | 95 | 100 | 100 | 80 | 80 | 95 | 95 | Plant response rating, Field Poppy [3, 15]: 100; Plant response rating: Lambsquarters [4, 8]: 95; Plant response rating: Lambsquarters [4, 9]: 90; Plant response rating: Lambsquarters [4, 10]: 95; Plant response rating, Lambsquarters [4, 11]: 95; Plant response rating, Lambsquarters [4, 12]: 20; Plant response rating, Lambsquarters [4, 13]: 55; Plant response rating, Lambsquarters [4, 14]: 90; Plant response rating, Lambsquarters [4, 15]: 90; Plant response rating: Wheat, Spring [5, 8]: 20; Plant response rating: Wheat, Spring [5, 9]: 25; Plant response rating: Wheat, Spring [5, 10]: 50; Plant response rating, Wheat, Spring [5, 11]: 15; Plant response rating, Wheat, Spring [5, 12]: 0; Plant response rating, Wheat, Spring [5, 13]: 0; Plant response rating, Wheat, Spring [5, 14]: 0; Plant response rating, Wheat, Spring [5, 15]: 5 |
| CCc1nn(-c2ccc(C(F)(F)F)cc2)nc1Oc1ccnc(C(F)(F)F)c1 [Compound 169] | 0 | 65 | 75 | 100 | 0 | 0 | 40 | 40 | 0 | 95 | 95 | 98 | 98 |  |  |  |  |  |  |  |  |
| CCc1nn(-c2ccc(F)c(F)c2)nc1Oc1ccnc(C(F)(F)F)c1 [Compound 171] | 0 | 0 | 10 | 30 | 0 | 0 | 35 | 65 | 0 | 0 | 5 | 15 | 98 |  |  |  |  |  |  |  |  |
| CCCc1nn(-c2ccc(F)c(F)c2)nc1Oc1ccnc(C(F)(F)F)c1 [Compound 172] |  | 20 | 35 | 98 |  | 0 | 5 | 5 |  | 20 |  | 100 | 100 |  |  |  |  |  |  |  |  |
| CCOc1nn(-c2ccc(F)cc2)nc1Cc1ccnc(C(F)(F)F)c1 [Compound 196, 4-[[5-ethoxy-2-(4-fluorophenyl)-2H-1,2,3-triazol-4-yl]methyl]-2-(trifluoromethyl)pyridine] |  | 15 | 100 |  | 30 | 30 | 70 |  | 5 | 10 | 100 | 100 |  | 100 | 100 | 100 | 100 | 95 | 90 | 100 | Plant response rating, Field Poppy [3, 15]: 100; Plant response rating: Lambsquarters [4, 8]: 90; Plant response rating: Lambsquarters [4, 9]: 90; Plant response rating: Lambsquarters [4, 10]: 95; Plant response rating, Lambsquarters [4, 11]: 85; Plant response rating, Lambsquarters [4, 12]: 55; Plant response rating, Lambsquarters [4, 13]: 65; Plant response rating, Lambsquarters [4, 14]: 100; Plant response rating, Lambsquarters [4, 15]: 100; Plant response rating: Wheat, Spring [5, 8]: 25; Plant response rating: Wheat, Spring [5, 9]: 35; Plant response rating: Wheat, Spring [5, 10]: 35; Plant response rating, Wheat, Spring [5, 11]: 15; Plant response rating, Wheat, Spring [5, 12]: 0; Plant response rating, Wheat, Spring [5, 13]: 5; Plant response rating, Wheat, Spring [5, 14]: 5; Plant response rating, Wheat, Spring [5, 15]: 25; Plant response rating, Surinam Grass [1, 16]: 0; Plant response rating, Morningglory [2, 16]: 0; Plant response rating, Kochia (kochia (Kochia scoparia); [16]): 5 |
